# Earlier results as cited in US8969412B2, “Use for a composition comprising chloroprocaine HCL, a new composition comprising chloroprocaine HCL and a method for its manufacture” (Sintetica S.A., priority 2005, dated 2015).
# What was measured:
# [1] = in vivo
# [2] = intrathecal anaesthesia
# [3] = intrathecal application
smiles,measurement,setting,value
"CCN(CC)CCOC(=O)c1ccc(N)cc1Cl [Chloroprocaine, 2-(diethylaminoethyl)-4-amino-chlorobenzoate]",systemic toxicity,[1],very low systemic toxicity
CCN(CC)CCOC(=O)c1ccc(N)cc1 [procaine],inadequacy rate,[2],17%
CCN(CC)CC(=O)Nc1c(C)cccc1C [lidocaine],transient neurologic syndrome (TNS),[3],associated with symptoms of so-called transient neurologic syndrome (TNS)
